Legend:
total hair counts = conditions: topical; male patients with androgenetic alopecia; Jo et al., Journal of Dermatology 2014; cited from earlier work
[1] = tested on: neofollicle germs in the wound area; assay: Neofollicle germ formation after full thickness excision (FTE) in mice, counted by confocal imaging and AP staining; type: in vivo, C57BL6/J female mice
Method: A study was conducted to assess the degree to which valproic acid could stimulate growth of new hair follicles by in mice when applied after a full thickness excision (FTE) procedure. FTE creates a zone of hair follicles that are 100% newly formed and removes noise from other clouding factors (e.g., migration of pre-existing follicles into the wound) (e.g., as described in Ito et. al., Nature, May 2007, “Wnt-dependent de novo hair follicle regeneration in adult mouse skin after wounding”, the contents of which is herein incorporated by reference in its entirety). The study was conducted with 2 arms (1) vehicle control and (2) 8.3% valproic acid; n=21 mice per arm). Valproic acid or placebo was applied twice daily for 4 days following scab detachment. The resulting data was analyzed and compared to a vehicle compound control cohort.
Day-12 C57BL6/J female mice pups (Jackson Labs) were maintained in cages and fed a high fat diet until day of surgery. […] After 1 hour, the mice were injected with ketamine (70 mg/kg)-xylazine (8 mg/kg), assigned a Study ID, and weight was recorded. […]
The degree of neofollicle germ formation was measured in the wound area, using imaging by confocal microscopy (confocal scanning laser microscope (CSLM) (VivaScope 1500, Lucid Inc., Rochester, N.Y., USA) and counting the number of early hair follicles developing underneath the surface of the skin. […]

CCCC(CCC)C(=O)O [Valproic Acid, 2-propylpentanoic acid]
Total hair count (in words) (total hair counts): increase total hair counts | Number of neofollicles versus FTE + vehicle treated controls (in words) ([1]; FTE + VPA 8.3% topical twice daily for 4 days, mice): strong trend indicating increased numbers of neofollicles | Mean count of neofollicles (Primary 1 + Primary 2 scoring categories) ([1]; FTE mice, 8.3% valproic acid in 50% ethanol/30% water/20% propylene glycol, topical 20 uL twice daily for 4 days after scab detachment, n=15, vehicle control 26.3 (n=21), one-tail P 0.066): 37.1

— patent US20200289441A1, “METHODS FOR PROMOTING HAIR GROWTH USING VALPROIC ACID” (FOLLICA, INC., priority 2017, published 2020)
